Results from patent publication US11697852B2, “Systems and methods for determining a treatment course of action” (The Regents of the University of Michigan, priority 2013, dated 2023).
“Also recorded” adds a separate entry of the source.

Key:
wild type ESR1 = target: T1, wild type ESR1 (Homo sapiens, UniProt P03372); test: ERE-luciferase reporter assay, wild type ESR1; format: cell-based; details: HEK-293T cells co-transfected with ESR1 plasmid 50 ng and ERE-luciferase; in presence of β-estradiol (FIGS. 4, 8, 9, 10)
T1 construct: expressed in transfected cells; host or cells: HEK-293T
T1 sequence (P03372 1-595): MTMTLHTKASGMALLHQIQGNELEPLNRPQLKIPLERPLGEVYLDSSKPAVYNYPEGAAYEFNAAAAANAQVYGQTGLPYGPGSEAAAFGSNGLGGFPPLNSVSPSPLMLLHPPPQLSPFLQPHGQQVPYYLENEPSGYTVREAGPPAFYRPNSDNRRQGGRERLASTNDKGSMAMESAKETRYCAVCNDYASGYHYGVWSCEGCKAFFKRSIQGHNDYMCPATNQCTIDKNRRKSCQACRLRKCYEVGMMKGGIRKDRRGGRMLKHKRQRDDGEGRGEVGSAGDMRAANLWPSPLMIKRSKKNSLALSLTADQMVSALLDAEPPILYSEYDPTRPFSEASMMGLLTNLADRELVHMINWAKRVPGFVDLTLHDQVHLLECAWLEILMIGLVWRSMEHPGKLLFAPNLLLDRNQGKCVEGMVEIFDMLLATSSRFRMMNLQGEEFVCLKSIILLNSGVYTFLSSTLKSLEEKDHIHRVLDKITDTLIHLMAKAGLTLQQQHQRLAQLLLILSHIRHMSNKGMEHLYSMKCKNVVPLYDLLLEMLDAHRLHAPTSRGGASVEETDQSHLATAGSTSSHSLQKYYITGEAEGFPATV
From the text: (§1) cDNA for the wild type ESR1 was PCR amplified from a breast cell line MCF7 with the introduction of an N-terminal FLAG tag. cDNA encoding the relevant mutations of ESR1 were generated by site-directed mutagenesis (QuikChange, Agilent) and full-length constructs were fully sequenced. All the ESR1 variants were placed in the Lentivial vector pCDH (System Biosciences) for eukaryotic expression.
Once cells attached, replaced medium with DMEM containing 10% charcoal-dextran treated FBS (HyClone) and cultured overnight. The next day, cells were transiently co-transfected with ESR1-expression plasmid at 50 ng/well and luciferase reporter constructs at 25 ng per well (SABiosciences) using the FuGene 6 reagent (Promega). The ER-responsive luciferase plasmid encoding the firefly luciferase reporter gene is driven by a minimal CMV promoter and tandem repeats of the estrogen transcriptional response element (ERE). A second plasmid constitutively expressing Renilla luciferase is served as an internal control for normalizing transfection efficiencies (Cignal ERE Reporter, SABiosciences). After transfection for 18 hrs, cells were serum-starved for a few hours before treatment with 13-estradiol or anti-estrogen drugs. Cells were harvested 18 hr post-treatment, and luciferase activity was measured using the Dual-Luciferase Reporter Assay System (Promega). […]

[1] = test system: ESR1 mutations p.Leu536Gln, p.Tyr537Ser, p.Asp538Gly, p.Tyr537Cys, p.Tyr537Asn; test: ERE-luciferase reporter assay, ESR1 LBD mutants; format: cell-based, human; details: for inhibition of the 5 LBD mutations of ESR1 (reporter activity): ERE-luciferase, increasing doses with 5 nM β-estradiol for 24 hrs (FIG. 4)
Method: as §1
For cell transfection experiments, HEK-293T cells were plated at a density of 1−2×10^5 per well (24-well plates) in phenol red-free Dulbecco's modified Eagle's medium (DMEM) containing 10% fetal bovine serum (FBS) and antibiotics. Once cells attached, replaced medium with DMEM containing 10% charcoal-dextran treated FBS (HyClone) and cultured overnight. The next day, cells were transiently co-transfected with ESR1-expression plasmid at 50 ng/well and luciferase reporter constructs at 25 ng per well (SABiosciences) using the FuGene 6 reagent (Promega). The ER-responsive luciferase plasmid encoding the firefly luciferase reporter gene is driven by a minimal CMV promoter and tandem repeats of the estrogen transcriptional response element (ERE). A second plasmid constitutively expressing Renilla luciferase is served as an internal control for normalizing transfection efficiencies (Cignal ERE Reporter, SABiosciences). After transfection for 18 hrs, cells were serum-starved for a few hours before treatment with 13-estradiol or anti-estrogen drugs. Cells were harvested 18 hr post-treatment, and luciferase activity was measured using the Dual-Luciferase Reporter Assay System (Promega). IC50 values were computed using the GraphPad Prizm application to fit a four parameter doseresponse curve.
It was next assessed whether tumor types other than ER positive metastatic hormone-resistant breast cancer also acquire ligand binding mutations in ESR1. The Cancer Genome Atlas Project (TCGA), which has generated whole exome data on 27 tumor types across at least 4000 individual samples was utilized. […] Steroid hormone deprived cells were then exposed to β-estradiol for 24 hours and ER reporter levels assessed.

Row | inhibition of wild-type ER reporter (transactivation) activity (wild type ESR1) | Molecule | maximal inhibition for all the mutants tested ([1]; ERE-luciferase dose response in competition with 1 nM estradiol (FIGS. 8 and 9)) | inhibition of the 5 LBD mutations of ESR1 (reporter activity) [1]
1 | inhibited in a dose-dependent fashion | (Z)-4-Hydroxytamoxifen |  | 
2 |  | C[C@]12CC[C@@H]3c4ccc(O)cc4C[C@@H](CCCCCCCCC[S+]([O-])CCCC(F)(F)C(F)(F)F)[C@H]3[C@@H]1CC[C@@H]2O (stereo partly shown) [fulvestrant, Fulvestrant] | greater maximal inhibition than 4-hydroxytamoxifen | in a dose-dependent fashion; also recorded: continue to be responsive
3 |  | CC/C(=C(\c1ccccc1)c1ccc(OCCN(C)C)cc1)c1ccccc1 [tamoxifen] |  | in a dose-dependent fashion; also recorded: continue to be responsive
